Each structure is given as a SMILES string.

Common to all, as to assay type: cell-based
Series [1] deals with mesenchymal stem cells derived from human adipose tissue. Kind of series: Test Example 5: cell proliferation activity (cell viability), CellTiter-Glo. Further details: scale not given here. The procedure:
Mesenchymal stem cells derived from the human adipose tissue (#C-12977 manufactured by Takara Bio Inc.) were suspended in mesenchymal stem cell growth medium 2 (C-28009 manufactured by Takara Bio Inc.) so as to be 2×10^3 cells/90 μL, and seeded on a 96-well cell culture treatment plate (3585 manufactured by Corning Inc.). To the seeded mesenchymal stem cells derived from human adipose tissue was added 10 μL of the compound solution of each of Examples 1 to 8 diluted to 10-fold concentration with the mesenchymal stem cell growth medium 2, or mesenchymal stem cell growth medium alone (control), and the cells were cultured for 24 hours. Subsequently, the number of living cells was measured as follows using CellTiter-Glo (Registered Trademark) Luminescent Cell Viability Assay (G7570 manufactured by Promega). 100 μL well of a solution in which CellTiter-Glo (trademark) Substrate was dissolved in CellTiter-Glo (trademark) Buffer was added to each well of the above-mentioned 96-well cell culture treatment plate, and then, 100 μL thereof was transferred to 96-well cell culture treatment white plate (356701 manufactured by Corning Inc.), and the luminescence was measured with Enspire (manufactured by PerkinElmer).
In general terms: Cellular ATP, detected with luciferase, serves as a proxy for viable cell number.

The test system is the same in series [2]. Kind of series: Test Example 3: promotion of secretion of extracellular vesicles, PS Capture exosome ELISA (anti-CD63). The note with it: 24 hours, absorbance 450 nm minus 620 nm. The procedure: Mesenchymal stem cells derived from the human adipose tissue (#C-12977 manufactured by Takara Bio Inc.) were suspended in mesenchymal stem cell growth medium 2 (C-28009 manufactured by Takara Bio Inc.) so as to be 8×10^4 cells/1.8 mL, and seeded on a 6-well cell culture treatment plate (3516 manufactured by Corning Inc.). To the seeded mesenchymal stem cells derived from human adipose tissue was added 200 μL of the compound solution of each of Examples 1 to 8 diluted to 10-fold concentration with the mesenchymal stem cell growth medium 2, or mesenchymal stem cell growth medium alone (control), and after culturing for 24 hours, the culture solution was recovered. Subsequently, the recovered culture solution was centrifuged by 20,000×g at 4° C. for 60 minutes to prepare a culture solution from which cell fragments and Large Extracellular Vesicles were removed. For the detection of the extracellular vesicles, PS Capture (trademark) exosome ELISA kit (anti-mouse IgG POD) (#297-79201 manufactured by FUJIFILM Wako Pure Chemical Corporation) was used.
To Reaction/Washing Buffer (10×) diluted 10-fold with purified water was added 1/100 amount of Exosome Binding Enhancer (100×) to prepare a Reaction/Washing Buffer (1×). The culture solution prepared as mentioned above was diluted 5-fold with the Reaction/Washing Buffer (1×). After washing the Exosome Capture 96-well plate with 300 μL of the Reaction/Washing Buffer (1×) three times, 5-fold diluted each of the culture solution or mesenchymal stem cell growth medium alone in which no cell was cultured was added to each well, and the mixture was reacted at room temperature for 2 hours while shaking with a microplate shaker. After completion of the reaction, the reaction mixture was discarded, and after washing each well with 300 μL of the Reaction/Washing Buffer (1×) three times, 100 μL of Primary Antibody Anti-CD63 (×100) diluted 1,000-fold with the Reaction/Washing Buffer (1×) was added thereto, and the mixture was reacted at room temperature for 1 hour while shaking with a microplate shaker. After completion of the reaction, the reaction mixture was discarded, and after washing each well with 300 μL of the Reaction/Washing Buffer (1×) three times, 100 μL of the Secondary Antibody HRP-conjugated Anti-mouse IgG (100×) diluted 1,000-fold with the Reaction/Washing Buffer (1×) was added thereto, and the mixture was reacted at room temperature for 1 hour while shaking with a microplate shaker. After completion of the reaction, the reaction mixture was discarded, and after washing each well with 300 μL of the Reaction/Washing Buffer (1×) five times, 100 μL of TMB Solution was added, and after shaking for 1 minute with a microplate shaker, the mixture was reacted at room temperature for 30 minutes. After completion of the reaction, 100 μL of Stop Solution was added thereto, and after shaking with a microplate shaker for 5 seconds, the absorbance at 450 nm and 620 nm was measured with Enspire (manufactured by PerkinElmer), and the absorbance at 620 nm was subtracted from the absorbance at 450 nm for each well.

For series [3] the test system is unchanged. Kind of series: Test Example 4: cytotoxicity, LDH activity in culture solution. The procedure:
Mesenchymal stem cells derived from the human adipose tissue (#C-12977 manufactured by Takara Bio Inc.) were suspended in mesenchymal stem cell growth medium 2 (C-28009 manufactured by Takara Bio Inc.) so as to be 8×10^4 cells/1.8 mL, and seeded on a 6-well cell culture treatment plate (3516 manufactured by Corning Inc.). To the seeded mesenchymal stem cells derived from human adipose tissue was added 200 μL of the compound solution of each of Examples 1 to 8 diluted to 10-fold concentration with the mesenchymal stem cell growth medium 2, or mesenchymal stem cell growth medium alone (control), and after culturing for 24 hours, the culture solution was recovered. The activity of lactate dehydrogenase (LDH) contained in the recovered culture solution was measured by using LDH Cytotoxicity Detection Kit (MK401 manufactured by Takara Bio Inc.) as follows. To a freeze-dried product of Solution A was added 1 mL of purified water to completely dissolve therein, then, 250 μL of Solution A and 11.25 mL of Solution B were mixed to prepare Solution C. To 100 μL of the recovered culture solution was added 100 μL of Solution C, and the mixture was reacted at room temperature for 30 minutes. Absorbance at 490 nm was measured using Enspire (manufactured by PerkinElmer).

Series [4] relates to mesenchymal stem cells derived from human bone marrow. Kind of series: Test Example 9: cell proliferation activity (cell viability), CellTiter-Glo. The procedure:
(§1) Mesenchymal stem cells derived from human bone marrow or mesenchymal stem cells derived from human umbilical cord matrix (#C-12974, #C-12971 manufactured by Takara Bio Inc.) were suspended in mesenchymal stem cell growth medium 2 (C-28009 manufactured by Takara Bio Inc.) so as to be 2×10^3 cells/90 μL, and seeded on a 96-well cell culture treatment plate (3585 manufactured by Corning Inc.). To the seeded mesenchymal stem cells was added each 10 μL of the compounds of Examples 1 to 8 diluted to 10-fold concentration with the mesenchymal stem cell growth medium 2, and the cells were cultured for 24 hours. Next, according to the following method, the number of living cells was measured using CellTiter-Glo (Registered Trademark) Luminescent Cell Viability Assay (G7570 manufactured by Promega).
(§2) CellTiter-Glo (Registered Trademark) Substrate was dissolved in CellTiter-Glo (Registered Trademark) Buffer. The prepared solution was added to each well with 100 μL/well, then, 100 μL thereof was apportioned to a 96-well cell culture treatment white plate (356701 manufactured by Corning Inc.), and luminescence was measured with Enspire (manufactured by PerkinElmer). A relative value when the compound untreated group (control) was set to 1 was calculated.

Series [5] relates to mesenchymal stem cells derived from human umbilical cord matrix. Described as above. The procedure:
as §1, §2

The mark [6] stands for this setting: Table 6, 2 μM, 24 hours, number of living cells, CellTiter-Glo.
The mark [7] stands for this setting: Table 4, 2 μM, 24 hours, LDH, absorbance at 490 nm.
Where [8] appears, read: 2 μM, 24 hours, CellTiter-Glo, control set to 1.
[9] abbreviates: 20 nM, 24 hours, CellTiter-Glo, control set to 1.
Where [10] appears, read: Table 6, 50 nM, 24 hours, number of living cells, CellTiter-Glo.
Where [11] appears, read: Table 4, 50 nM, 24 hours, LDH, absorbance at 490 nm.

As for `CC(=O)O.Cc1cc2c(C(C)C)c(O)c(O)c(C=O)c2c(O)c1-c1c(C)cc2c(C(C)C)c(O)c(O)c(C=O)c2c1O` (racemic) [Example 1, (±)-Gossypol Acetate], the Luminescence in series [1] (Table 5, 2 μM, 24 hours, number of living cells, CellTiter-Glo) amounted to 0.87; in series [1] (setting [6]), 0.96. Further, the Difference in absorbance in series [2] (Table 1, 2 μM) was found to be 2.15; in series [2] (Table 2, 2 μM), 1.97. Also, the Absorbance was determined as 1.08 in series [3] (Table 3, 2 μM, 24 hours, LDH, absorbance at 490 nm) and 0.73 in series [3] (setting [7]). The “Relative value of luminescence” value in series [4] (setting [8]) is listed as 0.91; in series [5] (setting [8]) it was 0.97.

Turning to `CC(=O)O.Cc1cc2c(C(C)C)c(O)c(O)c(C=O)c2c(O)c1-c1c(C)cc2c(C(C)C)c(O)c(O)c(C=O)c2c1O` [Example 2, (S)-Gossypol Acetate], the Luminescence in series [1] (setting [6]) is reported as 1.00. In addition, the Difference in absorbance in series [2] (Table 2, 2 μM) is 1.79. In series [3] (setting [7]), this compound came in with an Absorbance of 1.02. The “Relative value of luminescence” value in series [4] (setting [8]) came to 0.96; in series [5] (setting [8]), 0.97.

`Cc1cc2c(C(C)C)c(O)c(O)cc2c(O)c1-c1c(C)cc2c(C(C)C)c(O)c(O)cc2c1O` [Example 3, (+)-Apogossypol] displayed a Luminescence in series [1] (human, 24 h, 2 μM) of 0.82. In series [2] (Table 2, 2 μM), this compound had a Difference in absorbance of 1.33. The same compound had an Absorbance in series [3] (human, 24 h, 2 μM) of 1.02. In addition, the “Relative value of luminescence” value stood at 1.00 in series [4] (human, 24 h, 2 μM) and 1.01 in series [5] (human, 24 h, 2 μM).

With `Cc1cc2c(C(C)C)c(O)c(O)c(C=O)c2c(O)c1-c1c(C)cc2c(C(C)C)c(O)c(O)c(C=O)c2c1O` [Example 4, (R)-(−)-Gossypol], the Luminescence in series [1] (human, 24 h, 2 μM) came to 0.85. Further, the Difference in absorbance in series [2] (Table 2, 2 μM) is reported as 1.51. Besides, the Absorbance in series [3] (setting [7]) amounted to 1.20. In addition, the “Relative value of luminescence” value in series [4] (human, 24 h, 2 μM) came to 0.86; in series [5] (human, 24 h, 2 μM) it was 0.92.

Turning to `COC1=CC(c2cc3ccccc3[nH]2)=N/C1=C\c1[nH]c(C)cc1C.CS(=O)(=O)O` [Example 5, Obatoclax Mesylate], the Luminescence in series [1] (Table 5, 50 nM, 24 hours, number of living cells, CellTiter-Glo) is 0.75. In series [2] (Table 1, 50 nM), this compound returned a Difference in absorbance of 2.27. In series [3] (Table 3, 50 nM, 24 hours, LDH, absorbance at 490 nm), this compound returned an Absorbance of 1.14. Moreover, the “Relative value of luminescence” value in series [4] (setting [9]) is reported as 0.96; in series [5] (setting [9]), 0.84.

In turn, `CCCCCC1=C/C(=C\c2[nH]c(-c3ccc[nH]3)cc2OC)N=C1C.Cl` [Example 6, Prodigiosin Hydrochloride] returned a Luminescence in series [1] (setting [10]) of 0.76. This compound also gave a Difference in absorbance in series [2] (Table 2, 50 nM) of 2.38. In series [3] (setting [11]), this compound registered an Absorbance of 1.02. In addition, the “Relative value of luminescence” value in series [4] (setting [9]) worked out at 0.92; in series [5] (setting [9]) it was 0.78.

In turn, `CCCCCCCCCCCc1ccc(/C=C2\N=C(c3ccc[nH]3)C=C2OC)[nH]1.Cl` [Example 7, Undecylprodigiosin Hydrochloride] came in with a Luminescence in series [1] (setting [10]) of 0.74. In addition, the Difference in absorbance in series [2] (Table 2, 50 nM) worked out at 1.88. For the same compound, in series [3] (setting [11]), the Absorbance was found to be 1.02. The “Relative value of luminescence” value in series [4] (setting [9]) and in series [5] (setting [9]) was 0.82 each time.

`Cc1cc2c(C(=O)NC[C@H](C)c3ccccc3)c(O)c(O)cc2c(O)c1-c1c(C)cc2c(C(=O)NC[C@H](C)c3ccccc3)c(O)c(O)cc2c1O` [Example 8, Sabutoclax]: the Luminescence in series [1] (setting [6]) turned out to be 0.95. This compound also displayed a Difference in absorbance in series [2] (Table 2, 2 μM) of 1.41. Also, in series [3] (setting [7]), the Absorbance was determined as 1.18. The “Relative value of luminescence” value in series [4] (setting [8]) is listed as 0.93; in series [5] (setting [8]), 1.00.

For the origin of these results see patent US20220162561A1, “COMPOSITION FOR PROMOTING SECRETION OF EXTRACELLULAR VESICLES” (priority 2019, published 2022).
